Patent publication US10696687B2, “Pyrazolo fused heterocyclic compounds as ERK inhibitors” (CHANGZHOU JIEKAI PHARMATECH CO., LTD., priority 2015, dated 2020)

system: Colon cancer cells (Colo205 cell line); assay: Colo205 cell proliferation assay (MTT assay, WST-8 readout); format: cell-based; conditions: Homo sapiens, COLO 205, 72 hours incubation, absorbance at 450 nm, read-out: Colo 205 cell growth inhibition IC50
Experimental: Compounds disclosed herein were tested for the inhibition of ERK2 by a Colo205 cell proliferation assay commonly known as MTT assay. In this assay, a complete media was prepared by adding 10% fetal bovine serum to RPMI-1640 medium (Life technology). Colon cancer cells (Colo205 cell line) were added to each of 88 wells of a 96 well plate at a seeding density of 5,000 cells/well/90 μL. The cells were allowed to attach to the plate by incubating at 37° C. for 24 hours. The compound was dissolved in DMSO (SIGMA). A solution of test compound was prepared in complete media by serial dilution to obtain the following concentrations: 500 μM, 150 μM, 50 μM, 15 μM, 5 μM, 1.5 μM, 0.5 μM, 0.15 μM and 0.05 μM. The test compound solution (10 μL) was added to each of 80 cell-containing wells. The final concentrations of the compound were following: 50 μM, 15 μM, 5 μM, 1.5 μM, 0.5 μM, 0.15 μM, 0.05 μM, 0.015 μM and 0.005 μM. The final concentration of DMSO is 0.5%. To the 8 remaining cell-containing wells, only complete media (containing 0.5% DMSO) was added to form a control group in order to measure maximal proliferation. To the remaining 8 empty wells, complete media was added to for a vehicle control group in order to measure background. The plates were incubated at 37° C. for 72 hours. 10 μL WST-8 solution (DOJINDO, Cell Counting KIT-8) was added to each well. The plates were further incubated at 37° C. for 2 hours, and then read for the absorbance using a microplate reader at 450 nm.

IC50, 0.052 to 10 µM:
Cc1cc(-c2n[nH]c3ncc(C(=O)N[C@@H]4CN(C)C[C@H]4c4ccccc4)cc23)ccn1 (relative stereo) [Compound 38, Trans-N-(1-methyl-4-phenylpyrrolidin-3-yl)-3-(2-methylpyridin-4-yl)-1H-pyrazolo[3,4-b]pyridine-5-carboxamide]
Cc1cc(-c2n[nH]c3ncc(C(=O)N[C@@H]4COC[C@H]4c4ccccc4)cc23)ccn1 [Compound 35, trans-3-(2-methylpyridin-4-yl)-N-(4-phenyltetrahydrofuran-3-yl)-1H-pyrazolo[3,4-b]pyridine-5-carboxamide]
CCCN1C[C@H](NC(=O)c2cnc3[nH]nc(-c4ccnc(C)c4)c3c2)[C@@H](c2ccccc2C(F)(F)F)C1 (relative stereo) [Compound 29, trans-3-(2-methylpyridin-4-yl)-N-(-1-propyl-4-(2-(trifluoromethyl)phenyl)pyrrolidin-3-yl)-1H-pyrazolo[3,4-b]pyridine-5-carboxamide]
Cc1cc(-c2n[nH]c3ncc(C(=O)N[C@H]4CN(C)C[C@@H]4c4ccccc4F)cc23)ccn1 (relative stereo) [Compound 16, trans-N-(-4-(2-fluorophenyl)-1-methylpyrrolidin-3-yl)-3-(2-methylpyridin-4-yl)-1H-pyrazolo[3,4-b]pyridine-5-carboxamide]
Cc1cc(-c2n[nH]c3ncc(C(=O)N[C@@H]4C[C@H]4c4ccccc4)cc23)ccn1 (relative stereo) [Compound 36, trans-3-(2-methylpyridin-4-yl)-N-(2-phenylcyclopropyl)-1H-pyrazolo[3,4-b]pyridine-5-carboxamide]
Cc1cc(-c2n[nH]c3nc(NC(=O)N[C@H](C)c4ccccc4)ccc23)ccn1 [Compound 2, (R)-1-(3-(2-methylpyridin-4-yl)-1H-pyrazolo[3,4-b]pyridin-6-yl)-3-(1-phenylethyl)urea]
COc1cc(-c2n[nH]c3ncc(C(=O)N[C@H]4CN(C)C[C@@H]4c4ccccc4C(F)(F)F)cc23)ccn1 (relative stereo) [Compound 13, trans-3-(2-methoxypyridin-4-yl)-N-(1-methyl-4-(2-(trifluoromethyl)phenyl)pyrrolidin-3-yl)-1H-pyrazolo[3,4-b]pyridine-5-carboxamide]
CN1C[C@H](NC(=O)c2cnc3[nH]nc(N4CCOCC4)c3c2)[C@@H](c2ccccc2C(F)(F)F)C1 (relative stereo) [Compound 9, trans-N-(1-methyl-4-(2-(trifluoromethyl)phenyl)pyrrolidin-3-yl)-3-morpholino-1H-pyrazolo[3,4-b]pyridine-5-carboxamide]
CN1C[C@H](NC(=O)c2cnc3[nH]nc(-c4ccnc(C(F)(F)F)c4)c3c2)[C@@H](c2ccccc2C(F)(F)F)C1 (stereo in doubt) [Compound 18, N-(-1-methyl-4-(2-(trifluoromethyl)phenyl)pyrrolidin-3-yl)-3-(2-(trifluoromethyl)pyridin-4-yl)-1H-pyrazolo[3,4-b]pyridine-5-carboxamide]
Cc1cc(-c2n[nH]c3ccc(C(=O)N[C@@H]4CN(C)C[C@H]4c4ccccc4C(F)(F)F)cc23)ccn1 [Compound 39, N-((3S,4R)-1-methyl-4-(2-(trifluoromethyl)phenyl)pyrrolidin-3-yl)-3-(2-methylpyridin-4-yl)-1H-indazole-5-carboxamide]
Cc1cc(-c2n[nH]c3ccc(C(=O)N[C@H]4CN(C)C[C@@H]4c4ccccc4C(F)(F)F)cc23)ccn1 [Compound 41, N-((3R,4S)-1-methyl-4-(2-(trifluoromethyl)phenyl)pyrrolidin-3-yl)-3-(2-methylpyridin-4-yl)-1H-indazole-5-carboxamide]
Cc1cc(-c2n[nH]c3ncc(C(=O)N[C@H]4CN(C)C[C@@H]4c4ccccc4Cl)cc23)ccn1 [Compound 34, N-((3R,4S)-4-(2-chlorophenyl)-1-methylpyrrolidin-3-yl)-3-(2-methylpyridin-4-yl)-1H-pyrazolo[3,4-b]pyridine-5-carboxamide]
Cc1cc(-c2n[nH]c3ccc(C(=O)N[C@@H]4CN(C)C[C@H]4c4ccccc4Cl)cc23)ccn1 [Compound 37, N-((3S,4R)-4-(2-chlorophenyl)-1-methylpyrrolidin-3-yl)-3-(2-methylpyridin-4-yl)-1H-indazole-5-carboxamide]
Cc1cc(-c2n[nH]c3ccc(C(=O)N[C@H]4CN(C)C[C@@H]4c4ccccc4F)cc23)ccn1 (relative stereo) [Compound 23, trans-N-(-4-(2-fluorophenyl)-1-methylpyrrolidin-3-yl)-3-(2-methylpyridin-4-yl)-1H-indazole-5-carboxamide]
Cc1cc(-c2n[nH]c3ncc(C(=O)N[C@@H]4CN(C)C[C@H]4c4ccccc4C(F)(F)F)cc23)ccn1 (racemic) [Compound 3, trans-N-(1-methyl-4-(2-(trifluoromethyl)phenyl)pyrrolidin-3-yl)-3-(2-methylpyridin-4-yl)-1H-pyrazolo[3,4-b]pyridine-5-carboxamide]
Cc1cc(-c2n[nH]c3ncc(C(=O)N[C@H](CO)c4cccc(Cl)c4)cc23)ccn1 [Compound 1, (S)-N-(1-(3-chlorophenyl)-2-hydroxyethyl)-3-(2-methylpyridin-4-yl)-1H-pyrazolo[3,4-b]pyridine-5-carboxamide]
Cc1cc(-c2n[nH]c3ncc(C(=O)N[C@@H]4CN(C(C)C)C[C@H]4c4ccccc4C(F)(F)F)cc23)ccn1 [Compound 21, N-((3S,4R)-1-isopropyl-4-(2-(trifluoromethyl)phenyl)pyrrolidin-3-yl)-3-(2-methylpyridin-4-yl)-1H-pyrazolo[3,4-b]pyridine-5-carboxamide]
Cc1cc(-c2n[nH]c3ncc(C(=O)N[C@H]4CN(C)C[C@@H]4c4ccc(F)cc4)cc23)ccn1 (relative stereo) [Compound 24, trans-N-(-4-(4-fluorophenyl)-1-methylpyrrolidin-3-yl)-3-(2-methylpyridin-4-yl)-1H-pyrazolo[3,4-b]pyridine-5-carboxamide]
Cc1cc(-c2n[nH]c3ncc(C(=O)N[C@H]4CNC[C@@H]4c4ccccc4C(F)(F)F)cc23)ccn1 (stereo in doubt) [Compound 19, 3-(2-methylpyridin-4-yl)-N-(-4-(2-(trifluoromethyl)phenyl)pyrrolidin-3-yl)-1H-pyrazolo[3,4-b]pyridine-5-carboxamide]
Cc1cc(-c2n[nH]c3ncc(C(=O)N[C@@H]4CN(C)C[C@H]4c4ccccc4C(F)(F)F)cc23)ccn1 (single isomer, unassigned) [Compound 14]
COCCN1C[C@@H](NC(=O)c2cnc3[nH]nc(-c4ccnc(C)c4)c3c2)[C@H](c2ccccc2C(F)(F)F)C1 [Compound 22, N-((3S,4R)-1-(2-methoxyethyl)-4-(2-(trifluoromethyl)phenyl)pyrrolidin-3-yl)-3-(2-methylpyridin-4-yl)-1H-pyrazolo[3,4-b]pyridine-5-carboxamide]
Cc1cc(-c2n[nH]c3ncc(C(=O)N[C@H]4CN(C)C[C@@H]4c4ccc(F)cc4Cl)cc23)ccn1 (relative stereo) [Compound 28, trans-N-(-4-(2-chloro-4-fluorophenyl)-1-methylpyrrolidin-3-yl)-3-(2-methylpyridin-4-yl)-1H-pyrazolo[3,4-b]pyridine-5-carboxamide]
Cc1cc(-c2n[nH]c3ncc(C(=O)N[C@H]4CN(C)C[C@@H]4c4ccccc4C(F)(F)F)cc23)ccn1 (single isomer, unassigned) [Compound 15]
Cc1cc(-c2n[nH]c3ncc(C(=O)N[C@H]4CN(C)C[C@@H]4c4cccc(Cl)c4)cc23)ccn1 (relative stereo) [Compound 10, trans-N-(4-(3-chlorophenyl)-1-methylpyrrolidin-3-yl)-3-(2-methylpyridin-4-yl)-1H-pyrazolo[3,4-b]pyridine-5-carboxamide]
COc1ncc(-c2n[nH]c3ncc(C(=O)N[C@H]4CN(C)C[C@@H]4c4ccccc4C(F)(F)F)cc23)cn1 (relative stereo) [Compound 17, trans-3-(2-methoxypyrimidin-5-yl)-N-(-1-methyl-4-(2-(trifluoromethyl)phenyl)pyrrolidin-3-yl)-1H-pyrazolo[3,4-b]pyridine-5-carboxamide]
Cc1cc(-c2n[nH]c3ncc(C(=O)N[C@@H]4C[C@H]4c4ccccc4Cl)cc23)ccn1 (relative stereo) [Compound 40, trans-N-(2-(2-chlorophenyl)cyclo-propyl)-3-(2-methylpyridin-4-yl)-1H-pyrazolo[3,4-b]pyridine-5-carboxamide]
